# From paper PMC11779861 (Scientific Reports, 2025)
# Like-named read-outs stand apart in the source and are kept apart here.
# What was measured:
# hiPSC-CMs = test: Extracellular lactate dehydrogenase; assay type: cell-based, human; details: 48-hour treatment
# [1] = test system: ARPE-19 human retinal cells; test: MTS cell growth assay; assay type: cell-based; details: read-out: IC50 (cell growth)
# [2] = test system: Human Induced Pluripotent Stem Cell (hiPSC)-Derived Cardiomyocytes
# hiPSC-CM cell monolayer = test: Cell health index: cardiomyocyte cell monolayer assessment; assay type: cell-based, human
# [3] = cited from earlier work
smiles,measurement,setting,value
C=CCNC1=C2C[C@@H](C)C[C@H](OC)[C@H](O)[C@@H](C)/C=C(\C)[C@H](OC(N)=O)[C@@H](OC)/C=C\C=C(/C)C(=O)NC(=CC1=O)C2=O [17-AAG],extracellular LDH (in words),hiPSC-CMs,highly dose-dependently toxic
same,IC50,"[1]; ARPE-19, 48 hr, MTS, Avg ± SD, N = 3 biological replicates",20 nM
same,quiescence,"[2]; 0.25 µM, 48 h",1/8
same,quiescence,"[2]; 2.5 µM, 24 h",1/8
same,quiescence,"[2]; 2.5 µM, 48 h",6/8
same,quiescence,"[2]; 10 µM, 24 h",8/8
same,quiescence,"[2]; 10 µM, 48 h",8/8
same,quiescence,"[2]; 50 µM, 24 h",8/8
same,quiescence,"[2]; 50 µM, 48 h",8/8
same,cardiomyocyte function / cardio-toxicity (in words),[2]; 24 h,severe dysregulation of cardiomyocyte function
COc1cccc2c1C(=O)c1c(O)c3c(c(O)c1C2=O)C[C@@](O)(C(=O)CO)C[C@@H]3O[C@H]1C[C@H](N)[C@H](O)[C@H](C)O1 [Doxorubicin],effect on the cell monolayer (in words),hiPSC-CM cell monolayer,greater monolayer damage at both 24 and 48 h
same,electrical quiescence,"[2]; 0.3 µM, 30 min",1/8
same,cardiomyocyte function / cardio-toxicity (in words),[2]; 24 h,largely had no effect on electrophysiology
CCNC(=O)c1noc(-c2cc(C(C)C)c(O)cc2O)c1-c1ccc(CN2CCOCC2)cc1 [NVP AUY922],IC50,"[1]; Homo sapiens, ARPE-19, 48 h",< 10 nM
CCc1cc(C(N)=O)ccc1-n1nc(C(C)C)c2c(-n3cnc(-c4cnn(C)c4)c3)ccnc21 [TAS-116],IC50,"[1]; Homo sapiens, ARPE-19, 48 h",444 nM
same,ocular toxicities in vivo,[3],avoid any ocular toxicities in vivo
